Assay results reported in paper PMC6413118, “Active Components, Antioxidant, Inhibition on Metabolic Syndrome Related Enzymes, and Monthly Variations in Mature Leaf Hawk Tea” (Molecules, 2019).

Target: T1, porcine pancreatic lipase (Sus scrofa, UniProt P00591)
T1 construct: gene PNLIP; EC printed is that of carboxylesterase
T1 sequence (P00591 1-450): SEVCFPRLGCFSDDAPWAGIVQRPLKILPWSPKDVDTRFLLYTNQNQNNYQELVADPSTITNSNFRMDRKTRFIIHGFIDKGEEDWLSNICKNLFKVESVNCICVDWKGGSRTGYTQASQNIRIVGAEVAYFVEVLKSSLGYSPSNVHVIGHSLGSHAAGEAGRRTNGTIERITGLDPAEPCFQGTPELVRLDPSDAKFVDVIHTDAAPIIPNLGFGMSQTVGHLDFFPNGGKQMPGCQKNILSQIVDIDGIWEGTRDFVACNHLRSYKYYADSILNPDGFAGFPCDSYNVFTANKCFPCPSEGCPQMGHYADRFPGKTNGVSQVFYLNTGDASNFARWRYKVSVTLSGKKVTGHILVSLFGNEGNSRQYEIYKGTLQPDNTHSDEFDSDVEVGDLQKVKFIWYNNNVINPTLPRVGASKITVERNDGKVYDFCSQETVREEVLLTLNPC
Experiment: p-nitrophenyl palmitate hydrolysis, absorbance […] nm, microplate
Type: biochemical
Settings: 10 mM p-nitrophenyl palmitate stock (20 μL), 0.1 M sodium phosphate pH 7, 37 °C, 20 min; unreliable: table and text disagree tenfold

Lipase IC50: 0.6 µg/mL
Structure (SMILES): CCCCCCCCCCC[C@@H](C[C@@H]1OC(=O)[C@H]1CCCCCC)OC(=O)[C@H](CC(C)C)NC=O [Orlistat]
